Assay results: patent US5462941A, “3,6-disubstituted pyradazine derivatives” (Mitsubishi Chemical Corporation, priority 1991, dated 1995)

Key:
[1] = tested on: Myocardial Infarction of a Rat; assay: Effect on myocardial infarction of a rat induced by ligation of the left coronary artery; format: in vivo, rat (male SD); details: oral, 60 minutes before ligation
Experimental: Effects of 3,6-Disubstituted Pyridazine Derivatives on the Myocardial Infarction of a Rat Induced by the Ligation of the Left Coronary Artery
A rat group consisting of 8 male SD rats each weighing 200 to 250 g was tested. Myocardial infarction was produced in accordance with a method of Selye et al. That is, each rat was fixed on an operating boar on its back, and an about 1.5 cm incision had been made through the skin along the left sternal border under weak etherization. The pericardium was broken to exteriorize the heart, and the left coronary artery was ligated at a position of 1 to 2 mm apart from the origin thereof with black blade 4-O silk suture (produced by Hama Ika Kogyo). Thereafter, the heart was restored to its original position and the chest was sutured. The air in the throacic cavity was discharged by pressing both side breast portions. After the resumption of respiration, the ST elevation in the standard limb lead II by an electrocardiograph (Model ECG-6601, produced by Nihon Koden Co.,). 24 hours after the ligation, blood was collected from the aortas at the abdomen. A fatal amount of blood was then drawn from each rat. The heart was taken out, and a tissue slice (about 2 mm thick) having an annular cross section was cut from the central portion of the heart. The tissue slice was incubated in 20 ml of 1% TTC (tryphenyl tetrazolium chloride, produced by Wako Pure Chemical Industries Limited) dissolved in 0.09M of phosphoric acid buffer (pH 8.6) at 37° C. for 20 minutes while shielding light. The tissue slice was photographed by a stereoscopic microscope to produce a color slide. The image of the tissue slice was projected on a wall surface from the color slide. The cut surface, the infarcted portion (portion not dyed with TTC) and the non-infarcted portion (portion dyed with TTC) were traced on a sheet, and the area of the infarcted portion in the whole cross section was calculated. The medicine was suspended in an aqueous 1% tragacanth solution and orally administered to each rat 60 minutes before the ligation of the left coronary artery.
The myocardial infarction inhibitory ratio was calculated from the following formula: [formula] A: Infarction degree in the group (controlled group) to which only a solution of 1% tragacanth was administered
B: Infarction degree in the group to which the tragacanth solution containing a medicine was administered

[2] = tested on: Platelet Agglutination of Rats; assay: Inhibitory effect on collagen-induced platelet agglutination of rats in vitro (platelet rich plasma); format: cell-based; details: rat platelet rich plasma, read-out: in vitro Inhibitory ratio (platelet agglutination); for inhibition at 0.3 µM: 3 × 10^-7 M; for inhibition at 0.1 µM: 10^-7 M; for inhibition at 1 µM: 10^-6 M
Experimental: Inhibitory Effects of 3,6-Disubstituted Pyridazine Derivatives on Platelet Agglutination of Rats […]
Arterial blood of a rat was centrifuged to obtain platelet rich plasma. […] of a medicinal solution was added to 250 μl of the platelet rich plasma, and the mixture was incubated for 2 minutes. Thereafter, 3 μg of collagen (produced by Hormon-Chemie) was added to the mixture as a platelet agglutination inducer, and changes in the platelet agglutination were observed and recorded by a 2-channel platelet agglutination degree measuring instrument (Model DP247E, produced by Sienco) for 10 minutes.
(§1) The platelet agglutination inhibitory ratio was calculated from the following formula:
Inhibitory ratio=(Tc-Ts)/Tc×100
Tc: Agglutination degree when only a solvent was added
Ts: Agglutination degree when a medicinal solution was added

[3] = tested on: Platelet Agglutination of Rats; assay: Inhibitory effect on collagen-induced platelet agglutination of rats after oral administration (ex vivo); format: in vivo, rat (male Wistar-ST); details: 1 mg/kg p.o., blood collected one hour after; collagen 7 to 10 μg/ml; rat
Experimental: Inhibitory Effects of 3,6-Disubstituted Pyridazine Derivatives on Platelet Agglutination of Rats In Vivo (Oral Administration)
A rat group consisting of 8 male Wistar-ST rats each weighing about 250 g was tested. Each compound was suspended in aqueous 1% tragacanth solution. The thus-prepared suspension was orally administered to each rat at a dose of 4 ml/kg. One hour after, blood was collected from each carotid artery through a cannula into a plastic test tube containing 3.8% sodium citrate in amount corresponding to 1/10 of the volume of the test tube) and the mixture was stirred. Thereafter, the mixture was centrifuged at 200×g rpm for 15 minutes, and the supernatant liquid was taken as platelet rich plasma (PRP). The residue was further centrifuged at 2000×g rpm for 15 minutes, and the supernatant liquid was collected as platelet poor plasma (PPP) and used for measurement of the platelet agglutinating ability. The platelet agglutinating ability was measured by a 2-channel platelet agglutination degree measuring instrument (Model DP247E, produced by Sienco), and recorded by a 2-pen recorder.
Collagen (produced by Hormon-Chemie) having a concentration of 7 to 10 μg/ml was used as a platelet agglutination inducer.
as §1
Inhibitory ratio=(A-B)/A×100 (%)
A: Agglutination degree in the group (controlled group) to which only a solution of 1% tragacanth was administered
B: Agglutination degree in the group to which the tragacanth solution containing a compound was administered

CC(=O)Oc1ccccc1C(=O)O [Aspirin, reference compound]
percentage of inhibition (myocardial infarction) ([1]; 100 mg/kg): 10.7 percentage

C[C@@H](Nc1nnc(C2CCCCC2)c2ccccc12)c1ccccc1 [Example 1, (R)-1-(α-phenylethylamino)-4-cyclohexylphthalazine]
inhibition at 0.3 µM [2]: 97.1% | inhibition at 0.1 µM [2]: 89.2%

CCC(Nc1nnc(C2CCCCC2)c2ccccc12)c1ccccc1 (centres unmarked) [Example 2]
inhibition at 0.3 µM [2]: 96% | inhibition at 0.1 µM [2]: 56%

c1ccc2c(C3CCCCC3)nnc(NC3CCCCC3)c2c1 [Example 3]
inhibition at 0.3 µM [2]: 18.4% | inhibition at 1 µM [2]: 100%

CC1(C)CC(Nc2nnc(C3CCCCC3)c3ccccc23)CC(C)(C)C1 [Example 5]
inhibition at 1 µM [2]: 51.8%

C[C@@H](Nc1nnc(-c2ccsc2)c2ccccc12)c1ccccc1 [Example 39, (R)-1-(α-phenylethylamino)-4-(3-thienyl) phthalazine]
inhibition at 0.1 µM [2]: 94.9%

Cc1csc(-c2nnc(N[C@H](C)c3ccccc3)c3ccccc23)c1 [Example 42, (R)-1-(α-phenylethylamino)-4-(4-methyl-2-thienyl)phthalazine]
inhibition at 0.1 µM [2]: 96.3%

C[C@@H](Nc1nnc(-c2ccco2)c2ccccc12)C1CCCCC1 [Example 45, (R)-1-(α-cyclohexylethylamino)-4-(2-furyl)phthalazine]
inhibition at 0.1 µM [2]: 98.6%

c1coc(-c2nnc(-n3ccnc3)c3ccccc23)c1 [Example 46, 1-(1-imidazolyl)-4-(2-furyl)phthalazine]
inhibition at 0.3 µM [2]: 40.6% | inhibition at 1 µM [2]: 66.5%

C[C@@H](Nc1nnc(-c2ccccc2)c2ccccc12)C1CCCCC1 [Example 60, (R)-1-(1-cyclohexylethylamino)-4-phenylphthalazine]
percentage of inhibition (myocardial infarction) ([1]; 1 mg/kg): 68.5 percentage | percentage of inhibition (myocardial infarction) ([1]; 3 mg/kg): 82.2 percentage | ex vivo Inhibitory ratio (platelet agglutination) [3]: 51.3% | inhibition at 0.1 µM [2]: 94.3%

C[C@H](Nc1nnc(-c2ccccc2)c2ccccc12)C1CCCCC1 [Example 61]
inhibition at 0.3 µM [2]: 94.4% | inhibition at 0.1 µM [2]: 30.2%

C[C@@H](Nc1nnc(-c2cccs2)c2sccc12)c1ccccc1 [Example 69, (R)-4-(1-phenylethylamino)-7-(2-thienyl) thieno[2 3-d]pyridazine]
inhibition at 0.3 µM [2]: 95.2% | inhibition at 0.1 µM [2]: 50.8%

C[C@@H](Nc1nnc(-c2ccccc2)c2sccc12)c1ccccc1 [Example 70]
inhibition at 0.1 µM [2]: 95.2%

CCC(Nc1nnc(-c2ccccc2)c2sccc12)c1ccccc1 (centres unmarked) [Example 71]
inhibition at 0.3 µM [2]: 98.6% | inhibition at 0.1 µM [2]: 30.7%

CC(Nc1nnc(-c2ccccc2)c2sccc12)c1ccccc1Cl (centres unmarked) [Example 72]
inhibition at 0.3 µM [2]: 95.3% | inhibition at 0.1 µM [2]: 5.1%

Cc1cccc(C(C)Nc2nnc(-c3ccccc3)c3sccc23)c1 (centres unmarked) [Example 73]
inhibition at 0.3 µM [2]: 95.6% | inhibition at 0.1 µM [2]: 42.8%

COc1ccccc1C(C)Nc1nnc(-c2ccccc2)c2sccc12 (centres unmarked) [Example 74]
inhibition at 0.3 µM [2]: 93.5% | inhibition at 0.1 µM [2]: 73.4%

C[C@@H](Nc1nnc(-c2ccccc2)c2sccc12)C1CCCCC1 [Example 75]
ex vivo Inhibitory ratio (platelet agglutination) [3]: 50.2% | inhibition at 0.1 µM [2]: 94.5%

Cc1ccccc1-c1nnc(N[C@H](C)c2ccccc2)c2ccsc12 [Example 79]
inhibition at 0.3 µM [2]: 6.6% | inhibition at 1 µM [2]: 94.3%

c1ccc(-c2nnc(NC3CCCCC3)c3ccsc23)cc1 [Example 80]
inhibition at 0.1 µM [2]: 100%

C[C@@H](Nc1nnc(-c2ccccc2)c2ccsc12)c1ccccc1 [Example 82]
ex vivo Inhibitory ratio (platelet agglutination) [3]: 37.9% | inhibition at 0.1 µM [2]: 93.3%

C[C@H](Nc1nnc(-c2ccccc2)c2ccsc12)c1ccccc1 [Example 83]
inhibition at 0.3 µM [2]: 94.3%

CCC(Nc1nnc(-c2ccccc2)c2ccsc12)c1ccccc1 (centres unmarked) [Example 84]
inhibition at 0.3 µM [2]: 24.5% | inhibition at 1 µM [2]: 61.6%

CCCCC(Nc1nnc(-c2ccccc2)c2ccsc12)c1ccccc1 (centres unmarked) [Example 85]
inhibition at 1 µM [2]: 40.7%

CC(Nc1nnc(-c2ccccc2)c2ccsc12)c1ccccc1Cl (centres unmarked) [Example 86]
inhibition at 0.3 µM [2]: 78.2% | inhibition at 1 µM [2]: 90.2%

Cc1cccc(C(C)Nc2nnc(-c3ccccc3)c3ccsc23)c1 (centres unmarked) [Example 87]
inhibition at 1 µM [2]: 18%

COc1ccccc1C(C)Nc1nnc(-c2ccccc2)c2ccsc12 (centres unmarked) [Example 89]
inhibition at 0.3 µM [2]: 49.5% | inhibition at 1 µM [2]: 95.4%

C[C@@H](Nc1nnc(-c2ccccc2)c2ccsc12)C1CCCCC1 [Example 90]
ex vivo Inhibitory ratio (platelet agglutination) [3]: 60.6% | inhibition at 0.3 µM [2]: 94.4% | inhibition at 0.1 µM [2]: 32.7%

C[C@@H](Nc1nnc(-c2ccccc2)c2occc12)C1CCCCC1 [Example 95, (R)-4-(1-cyclohexylethylamino)-7-phenyl-furano[2,3-d]pyridazine]
ex vivo Inhibitory ratio (platelet agglutination) [3]: 63.1% | inhibition at 0.3 µM [2]: 100% | inhibition at 0.1 µM [2]: 94.4%

Clc1ccccc1CN1CCc2sccc2C1 [Ticlopidine, reference compound]
percentage of inhibition (myocardial infarction) ([1]; 30 mg/kg): 10.1 percentage
